The results in this text go back to patent publication US11247987B2, “Inhibiting ubiquitin specific peptidase 30” (FORMA Therapeutics, Inc., priority 2017, dated 2022).

Where only a bound is given, the exact number is not on record here.

The target in the assay is T1, human recombinant USP30 (Homo sapiens, UniProt Q70CQ3).
T1 construct: purchased Boston Biochem E-582
T1 sequence (Q70CQ3 1-517): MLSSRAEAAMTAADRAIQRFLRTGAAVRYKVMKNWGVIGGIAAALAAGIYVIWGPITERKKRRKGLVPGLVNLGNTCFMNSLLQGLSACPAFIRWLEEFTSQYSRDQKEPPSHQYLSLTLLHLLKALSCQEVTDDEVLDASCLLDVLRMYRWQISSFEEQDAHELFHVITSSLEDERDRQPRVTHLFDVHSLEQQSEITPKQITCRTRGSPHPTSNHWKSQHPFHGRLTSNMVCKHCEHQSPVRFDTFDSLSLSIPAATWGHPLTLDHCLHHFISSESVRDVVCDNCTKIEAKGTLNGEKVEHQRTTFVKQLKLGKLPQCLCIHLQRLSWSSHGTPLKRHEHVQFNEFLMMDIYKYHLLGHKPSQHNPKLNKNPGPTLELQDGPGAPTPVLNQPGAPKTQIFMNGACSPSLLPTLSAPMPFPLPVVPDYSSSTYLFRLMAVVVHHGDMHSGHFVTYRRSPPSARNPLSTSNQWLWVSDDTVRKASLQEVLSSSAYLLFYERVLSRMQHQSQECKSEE
Put plainly: Ubiquitin-Rhodamine 110 Assay for USP30 Activity (USP30 Inhibitor Biochemical Assay). The conditions noted are these: 0.2 nM USP30, 25 nM Ub-Rh110, 30 min preincubation, 30 min at room temperature; read-out: USP30 potency range (USP30 biochemical IC50 assay, IC50 ranges). The procedure: Example A: Biochemical Assay: Ubiquitin-Rhodamine 110 Assay for USP30 Activity (USP30 Inhibitor Biochemical Assay)
The assay was performed in a final volume of 9 μL in assay buffer containing 20 mM Tris-HCl (pH 8.0, (1M Tris-HCl, pH 8.0 solution; Corning 46-031-CM)), 1 mM GSH (L-glutathione reduced, Sigma-Aldrich, G4251-100G), 0.03% BGG (0.22 μM filtered, Sigma, G7516-25G), and 0.01% Triton X-100 (Sigma, T9284-10L). Nanoliter quantities of 10-point, 3-fold serial dilution in DMSO were pre-dispensed into 1536 assay plates (Corning, #3724BC) for a final test concentration of 25 μM to 1.3 nM, top to lowest dose, respectively. Concentration and incubation times were optimized for the maximal signal-to-background while maintaining initial velocity conditions at a fixed substrate concentration. The final concentration of USP30 (human recombinant USP30, Boston Biochem, cat. # E-582) in the assay was 0.2 nM. […] 3 μL of 2×USP30 was added to assay plates (pre-stamped with compound), preincubated for 30 minutes and then treated with 3 μL of 2×Ub-Rh110. Plates were incubated for 30 minutes at room temperature before addition of 3 μL of stop solution (final concentration of 10 mM citric acid (Sigma, 251275-500G)). Fluorescence was read on the Envision (excitation at 485 nm and emission at 535 nm; Perkin Elmer) or on the PheraSTAR (excitation at 485 nm and emission at 535 nm; BMG Labtech).
For all assay formats data were reported as percent inhibition compared with control wells based on the following equation: % inh=1−((FLU−AveLow)/(AveHigh−AveLow)) where FLU=measured Fluorescence, AveLow=average Fluorescence of no enzyme control (n=16), and AveHigh=average Fluorescence of DMSO control (n=16). IC50 values were determined by curve fitting of the standard 4 parameter logistic fitting algorithm included in the Activity Base software package: IDBS XE Designer Model205. Data is fitted using the Levenburg Marquardt algorithm.

Turning to `CN(c1cc(-c2cccc(Cl)c2)on1)C(=O)[C@H]1C[C@H](NC#N)C1` [Compound 1-52, (1r,3r)-N-[5-(3-chlorophenyl)-1,2-oxazol-3-yl]-3-(cyanoamino)-N-methylcyclobutane-1-carboxamide], the 50% inhibitory concentration (IC50) lay in the range of 100 to 1000 nM.

For the compound `N#CN[C@H]1C[C@H](C(=O)Nc2ncc(C3CCCCC3)o2)C1` [Compound 1-53, (1r,3r)-3-(cyanoamino)-N-(5-cyclohexyl-1,3-oxazol-2-yl)cyclobutane-1-carboxamide], the IC50 was 100 to 1000 nM. Turning to `CN(c1nc(Cl)c(C(C)(C)C)s1)C(=O)[C@]1(F)C[C@H](NC#N)C1` [Compound 1-54, (1r,3r)-N-(5-tert-butyl-4-chloro-1,3-thiazol-2-yl)-3-(cyanoamino)-1-fluoro-N-methylcyclobutane-1-carboxamide], the half-inhibitory concentration (IC50) was < 100 nM. Turning to `CN(c1nc(Cl)c(C2CCCCC2)s1)C(=O)[C@]1(F)C[C@H](NC#N)C1` [Compound 1-55, (1r,3r)-N-(4-chloro-5-cyclohexyl-1,3-thiazol-2-yl)-3-(cyanoamino)-1-fluoro-N-methylcyclobutane-1-carboxamide], the concentration for half-maximal inhibition (IC50) is < 100 nM.

As to `N#CN[C@H]1C[C@](F)(C(=O)Nc2cc(-c3ccc(C(F)(F)F)cc3)n[nH]2)C1` [Compound 1-56, (1s,3s)-3-(cyanoamino)-1-fluoro-N-{3-[4-(trifluoro-methyl)phenyl]-1H-pyrazol-5-yl}cyclobutane-1-carboxamide], the half-maximal inhibitory concentration (IC50) lay in the range of 100 to 1000 nM.

Consider `N#CN[C@H]1C[C@@](F)(C(=O)Nc2cc(-c3ccc(C(F)(F)F)cc3)n[nH]2)C1` [Compound 1-57, (1r,3r)-3-(cyanoamino)-1-fluoro-N-{3-[4-(trifluoro-methyl)phenyl]-1H-pyrazol-5-yl}cyclobutane-1-carboxamide], for which the concentration for half-maximal inhibition (IC50) lay in the range of 100 to 1000 nM. The figure for `CN(c1nc(Cl)c(C2CCCCC2)s1)C(=O)[C@]1(F)C[C@@H](NC#N)C1` [Compound 1-58, (1s,3s)-N-(4-chloro-5-cyclohexyl-1,3-thiazol-2-yl)-3-(cyanoamino)-1-fluoro-N-methylcyclobutane-1-carboxamide] is 100 to 1000 nM; for `CC(C)(C)c1sc(NC(=O)[C@]2(F)C[C@@H](NC#N)C2)nc1Cl` [Compound 1-59, (1s,3s)-N-(5-tert-butyl-4-chloro-1,3-thiazol-2-yl)-3-(cyanoamino)-1-fluorocyclobutane-1-carboxamide] it is 100 to 1000 nM. The figure for `CC(C)(C)c1sc(NC(=O)[C@]2(F)C[C@H](NC#N)C2)nc1Cl` [Compound 1-60, (1r,3r)-N-(5-tert-butyl-4-chloro-1,3-thiazol-2-yl)-3-(cyanoamino)-1-fluorocyclobutane-1-carboxamide] is < 100 nM. With `Cc1cc(NC(=O)[C@H]2C[C@H](NC#N)C2)cc(-c2ccccc2F)c1` [Compound 1-61, (1r,3r)-3-(cyanoamino)-N-[3-(2-fluorophenyl)-5-methylphenyl]cyclo-butane-1-carboxamide], the IC50 is 100 to 1000 nM. Take `N#CN[C@H]1C[C@H](C(=O)Nc2cc(Cl)cc(C3CCCCC3)c2)C1` [Compound 1-62, (1r,3r)-N-(3-chloro-5-cyclohexylphenyl)-3-(cyanoamino)cyclo-butane-1-carboxamide]: the IC50 was < 100 nM.

For the compound `N#CN[C@H]1C[C@H](C(=O)Nc2ccc(F)c(N3CCCCC3)c2)C1` [Compound 1-63, (1r,3r)-3-(cyanoamino)-N-[4-fluoro-3-(piperidin-1-yl)phenyl]cyclobutane-1-carboxamide], the IC50 was in the range of 100 to 1000 nM. The figure for `N#CN[C@H]1C[C@H](C(=O)Nc2nc3cccc(OC4CCC4)c3s2)C1` [Compound 1-64, (1r,3r)-3-(cyanoamino)-N-(7-cyclobutoxy-1,3-benzothiazol-2-yl)cyclobutane-1-carboxamide] is 100 to 1000 nM; for `N#CN[C@H]1C[C@@](F)(C(=O)Nc2nc3cccc(OC4CCC4)c3s2)C1` [Compound 1-65, (1r,3r)-3-(cyanoamino)-N-(7-cyclobutoxy-1,3-benzothiazol-2-yl)-1-fluorocyclobutane-1-carboxamide] it is < 100 nM. In the case of `N#CN[C@H]1C[C@](F)(C(=O)Nc2nc3cccc(OC4CCC4)c3s2)C1` [Compound 1-66, (1s,3s)-3-(cyanoamino)-N-(7-cyclobutoxy-1,3-benzothiazol-2-yl)-1-fluorocyclobutane-1-carboxamide] it was 100 to 1000 nM; in that of `CC1(C)[C@@H]2CC[C@@H](CNC(=O)[C@H]3C[C@H](NC#N)C3)[C@H]1C2` [Compound 1-67, (1r,3r)-3-(cyanoamino)-N-{[(1R,2R,5R)-6,6-dimethylbicyclo[3.1.1]heptan-2-yl]methyl}cyclo-butane-1-carboxamide], 100 to 1000 nM. The figure for `N#CN[C@H]1C[C@H](C(=O)Nc2nc(-c3ccc(Cl)cc3)cs2)C1` [Compound 1-68, (1r,3r)-N-[4-(4-chlorophenyl)-1,3-thiazol-2-yl]-3-(cyanoamino)cyclo-butane-1-carboxamide] is 100 to 1000 nM; for `N#CN[C@H]1C[C@H](C(=O)Nc2cccc(-c3ccccc3)c2)C1` [Compound 1-69, (1r,3r)-3-(cyanoamino)-N-(3-phenylphenyl)cyclo-butane-1-carboxamide] it is 100 to 1000 nM; for `CC(C)c1ccc(CNC(=O)[C@H]2C[C@H](NC#N)C2)cc1` [Compound 1-70, (1r,3r)-3-(cyanoamino)-N-{[4-(propan-2-yl)phenyl]methyl} cyclobutane-1-carboxamide] it is < 100 nM. On to `CC(C)(C)[C@H]1CC[C@@H](NC(=O)[C@H]2C[C@H](NC#N)C2)CC1` [Compound 1-71, (1r,3r)-3-(cyanoamino)-N-[(1s,4s)-4-tert-butylcyclohexyl]cyclo-butane-1-carboxamide], for which the 50% inhibitory concentration (IC50) fell in the range of 100 to 1000 nM. The figure for `N#CN[C@H]1C[C@H](C(=O)Nc2cccc(C(F)(F)F)c2)C1` [Compound 1-73, (1r,3r)-3-(cyanoamino)-N-[3-(trifluoro-methyl)phenyl] cyclobutane-1-carboxamide] is 100 to 1000 nM; for `N#CNC1CN(C(=O)Nc2ncc(C3CCCCC3)s2)C1` [Compound 2-1, 3-(cyanoamino)-N-(5-cyclohexyl-1,3-thiazol-2-yl)azetidine-1-carboxamide] it is 1000 to 10000 nM. For the compound `N#CN[C@H]1CCN(C(=O)Nc2ncc(C3CCCCC3)s2)C1` [Compound 2-2, (3S)-3-(cyanoamino)-N-(5-cyclohexyl-1,3-thiazol-2-yl)pyrrolidine-1-carboxamide], the concentration for half-maximal inhibition (IC50) was in the range of 1000 to 10000 nM. The figure for `N#CN[C@H]1C[C@H](NC(=O)c2ncc(-c3ccccc3)s2)C1` [Compound 3-1, 5-phenyl-N-[(trans)-3-(cyanoamino)cyclobutyl]-1,3-thiazole-2-carboxamide] is 1000 to 10000 nM; for `N#CNC1CC2(CCN2C(=O)c2cnc(-c3ccccc3)s2)C1` (stereo not drawn) [Compound 3-2, {[1-(2-phenyl-1,3-thiazole-5-carbonyl)-l-azaspiro[3.3]heptan-6-yl]amino} carbonitrile] it is 100 to 1000 nM; for `Cn1cc(-c2ccc(-c3cc(C(=O)N[C@H]4C[C@@H](NC#N)C4)on3)cc2)cn1` [Compound 3-3, 3-[4-(1-methyl-1H-pyrazol-4-yl)phenyl]-N-[(1s,3s)-3-(cyanoamino)cyclobutyl]-1,2-oxazole-5-carboxamide] it is 100 to 1000 nM. Regarding `Cn1cc(-c2ccc(-c3cc(C(=O)N4CCC[C@]45C[C@H](NC#N)C5)on3)cc2)cn1` [Compound 3-4, {[(2r,4s)-5-{3-[4-(1-methyl-1H-pyrazol-4-yl)phenyl]-1,2-oxazole-5-carbonyl}-5-azaspiro[3.4]octan-2-yl]amino} carbonitrile], the IC50 fell in the range of 100 to 1000 nM. The figure for `Cn1cc(-c2ccc(-c3cc(C(=O)N4CC[C@]45C[C@@H](NC#N)C5)on3)cc2)cn1` [Compound 3-5, {[(4r,6s)-1-{3-[4-(1-methyl-1H-pyrazol-4-yl)phenyl]-1,2-oxazole-5-carbonyl}-1-azaspiro[3.3]heptan-6-yl]amino} carbonitrile] is 100 to 1000 nM.

As usually defined, the IC50 is the concentration that gives 50% inhibition.
